Columns and labels:
[1] = test system: subjects with IBS; experiment: Combined analysis of the two studies of rifaximin 550 mg TID; assay type: in vivo, human
[2] = test system: patients with nonconstipation irritable bowel syndrome (non-C IBS); experiment: Trial of rifaximin 550 mg TID for 14 days with 10-week follow-up (Example 5; Study 2 of Example 6); assay type: in vivo, human
From the text: A measure of efficacy is based on subjects' answers to the Weekly Subject Global Assessment (SGA) questions over the 4 week study duration in relation to their IBS symptoms. […] Another measure of efficacy is based on subjects' answers to the Weekly Subject Global Assessment (SGA) question over the 4 week study duration in relation to their IBS symptom of bloating. The SGA question is asked weekly as follows: “In the past 7 days, have you had adequate relief of your IBS symptom of bloating?” (Yes/No). […] Other measures of efficacy include the changes in dIBS symptoms from baseline to each week of the 4 weeks in the study (e.g., abdominal pain and discomfort, bloating, number of stools per day, stool consistency, urgency with loose or watery stools).
The primary efficacy endpoint of the study was the proportion of subjects who achieve adequate relief of IBS symptoms for at least 2 weeks during 10 the first 4 weeks of the 10-week follow-up phase.
Two measures of efficacy were assessed.
Subjects were questioned on the relief of overall IBS symptoms and bloating. […] The analyses defined success as a “yes” response to questions regarding adequate relief.
Assessment (SGA) questions over the 4 week study duration in relation to their IBS symptoms. […] Another measure of efficacy is based on subjects' answers to the Weekly Subject Global Assessment (SGA) question over the 4 week study duration in relation to their IBS symptom of bloating. The SGA question is asked weekly as follows: “In the past 7 days, have you had adequate relief of your IBS symptom of bloating'?” (Yes/No).
All subpopulations in the study responded to therapy. Baseline severity was determined during screening for Abdominal Pain/Discomfort and Bloating, and the number, type (normal, hard, loose) and urgency of bowel movements. Duration of effect was assessed in a ten week follow-up period.
A measure of efficacy is based on subjects' answers to the Weekly Subject Global Assessment (SGA) questions over the study duration in relation to their IBS symptoms.

[3] = at least 2 out of 4 weeks adequate relief during weeks 3 through 6 (weekly question)
[4] = Age Group: <65, Rifaximin 550 mg TID (N = 281)
[5] = Age Group: >=65, Rifaximin 550 mg TID
[6] = Gender: Female, Rifaximin 550 mg TID (N = 226)
[7] = Gender: Male, Rifaximin 550 mg TID (N = 85)
[8] = IBS Subtype: Alternating-predominant, Rifaximin 550 mg TID
[9] = IBS Subtype: Diarrhoea-predominant, Rifaximin 550 mg TID
[10] = Population: ITT, Rifaximin 550 mg TID (N = 315)
[11] = Population: PP, Rifaximin 550 mg TID (N = 311)
[12] = Population: PP, Rifaximin 550 mg TID (N = 311), Weeks 3 through 6
[13] = Race: Non-White, Rifaximin 550 mg TID (N = 31)
[14] = Race: White, Rifaximin 550 mg TID (N = 280)
[15] = Rifaximin 550 mg TID (N = 315), weekly SGA, at least 2 of Weeks 3 through 6, LOCF

For “(2S,16Z,18E,20S,21S,22R, 23R,24R,25S,26S,27S,28E)-5,6,21,23,25 Pentahydroxy-27-methoxy -2,4,11,16,20,22,24,26-octamethyl-2,7-(epoxypentadeca-(1,11,13)trienimino)benzofuro (4,5-e) pyrido(1,2,-a) benzimidazole-1,15(2H)-dione,25-acetate [Rifaximin]”, the “Daily abdominal pain <2, responders” value ([1]; <2 for at least 50% of days in a week for at least 2 weeks during PEP) was 39%, the “Global IBS symptoms, responders” value [1, 3] was 41% and the “IBS symptom of Bloating, responders” value [1, 3] was 40%. For the same substance, the “Abdominal Pain reduction of 2 point in median, responders” value ([1]; at least 2 weeks during PEP) was 39%, the “Abdominal Pain reduction of 3 point in mean, responders” value ([1]; at least 2 weeks during PEP) was 6% vs 7% and the “Abdominal Pain reduction of 3 point in median, responders” value ([1]; at least 2 weeks during PEP) was 21%. For the same substance, the “Abdominal pain reduction of 1 point in median, responders” value ([1]; weekly median vs baseline for at least 2 weeks during PEP) was 63%, the “Adequate relief of IBS related symptoms (SGA) and IBS-related bloating (IBS-B)” value ([2]; 550 mg TID for 2 weeks) was “statistically significant relief” and the “Adequate Relief of IBS symptom of Bloating: Failure” value [2, 4] was 171 (60.9%) N (%). For the same substance, the “Adequate Relief of IBS symptom of Bloating: Success” value [2, 4] was 110 (39.1%) N (%), the “Adequate Relief of IBS symptoms: Failure” value [2, 4] was 171 (60.9%) N (%) and the “Adequate Relief of IBS symptoms: Success” value [2, 4] was 110 (39.1%) N (%). The “Adequate Relief of IBS symptom of Bloating: Failure” value [2, 5] was 16 (53.3%) N (%), the “Adequate Relief of IBS symptom of Bloating: Success” value [2, 5] was 14 (46.7%) N (%) and the “Adequate Relief of IBS symptoms: Failure” value [2, 5] was 16 (53.3%) N (%). The “Adequate Relief of IBS symptoms: Success” value [2, 5] was 14 (46.7%) N (%), the “Adequate Relief of IBS symptom of Bloating: Failure” value [2, 6] was 128 (56.6%) N (%) and the “Adequate Relief of IBS symptom of Bloating: Success” value [2, 6] was 98 (43.4%) N (%). For the same substance, the “Adequate Relief of IBS symptoms: Failure” value [2, 6] was 130 (57.5%) N (%), the “Adequate Relief of IBS symptoms: Success” value [2, 6] was 96 (42.5%) N (%) and the “Adequate Relief of IBS symptom of Bloating: Failure” value [2, 7] was 59 (69.4%) N (%). The “Adequate Relief of IBS symptom of Bloating: Success” value [2, 7] was 26 (30.6%) N (%), the “Adequate Relief of IBS symptoms: Failure” value [2, 7] was 57 (67.1%) N (%) and the “Adequate Relief of IBS symptoms: Success” value [2, 7] was 28 (32.9%) N (%). For the same substance, the “Adequate Relief of IBS symptom of Bloating: Failure” value [2, 8] was 19 (55.9%) N (%), the “Adequate Relief of IBS symptom of Bloating: Success” value [2, 8] was 15 (44.1%) N (%) and the “Adequate Relief of IBS symptoms: Failure” value [2, 8] was 21 (61.8%) N (%). The “Adequate Relief of IBS symptoms: Success” value [2, 8] was 13 (38.2%) N (%), the “Adequate Relief of IBS symptom of Bloating: Failure” value [2, 9] was 168 (60.6%) N (%) and the “Adequate Relief of IBS symptom of Bloating: Success” value [2, 9] was 109 (39.4%) N (%). The “Adequate Relief of IBS symptoms: Failure” value [2, 9] was 166 (59.9%) N (%), the “Adequate Relief of IBS symptoms: Success” value [2, 9] was 111 (40.1%) N (%) and the “Adequate Relief of IBS symptom of Bloating Based on Daily Measures: Failure” value [2, 10] was 182 (57.8%) N (%). The “Adequate Relief of IBS symptom of Bloating Based on Daily Measures: Success” value [2, 10] was 133 (42.2%) N (%), the “Adequate Relief of IBS symptoms Based on Daily Measures: Failure” value [2, 10] was 200 (63.5%) N (%) and the “Adequate Relief of IBS symptoms Based on Daily Measures: Success” value [2, 10] was 115 (36.5%) N (%). For the same substance, the “Adequate Relief of IBS symptom of Bloating Based on Daily Measures: Failure” value [2, 11] was 180 (57.9%) N (%), the “Adequate Relief of IBS symptom of Bloating Based on Daily Measures: Success” value [2, 11] was 131 (42.1%) N (%) and the “Adequate Relief of IBS symptoms Based on Daily Measures: Failure” value [2, 11] was 196 (63.0%) N (%). For the same substance, the “Adequate Relief of IBS symptoms Based on Daily Measures: Success” value [2, 11] was 115 (37.0%) N (%), the “Adequate Relief of IBS symptom of Bloating: Failure” value [2, 12] was 187 (60.1%) N (%) and the “Adequate Relief of IBS symptom of Bloating: Success” value [2, 12] was 124 (39.9%) N (%). For the same substance, the “Adequate Relief of IBS symptoms: Failure” value [2, 12] was 187 (60.1%) N (%), the “Adequate Relief of IBS symptoms: Success” value [2, 12] was 124 (39.9%) N (%) and the “Adequate Relief of IBS symptom of Bloating: Failure” value [2, 13] was 17 (54.8%) N (%). The “Adequate Relief of IBS symptom of Bloating: Success” value [2, 13] was 14 (45.2%) N (%), the “Adequate Relief of IBS symptoms: Failure” value [2, 13] was 16 (51.6%) N (%) and the “Adequate Relief of IBS symptoms: Success” value [2, 13] was 15 (48.4%) N (%). For the same substance, the “Adequate Relief of IBS symptom of Bloating: Failure” value [2, 14] was 170 (60.7%) N (%), the “Adequate Relief of IBS symptom of Bloating: Success” value [2, 14] was 110 (39.3%) N (%) and the “Adequate Relief of IBS symptoms: Failure” value [2, 14] was 171 (61.1%) N (%). For the same substance, the “Adequate Relief of IBS symptoms: Success” value [2, 14] was 109 (38.9%) N (%), the “Adequate Relief of IBS symptom of Bloating: Failure” value [2, 15] was 190 (60.3%) n (%) and the “Adequate Relief of IBS symptom of Bloating: Success” value [2, 15] was 125 (39.7%) n (%). For the same substance, the “Adequate Relief of IBS symptoms: Failure” value [2, 15] was 190 (60.3%) n (%) and the “Adequate Relief of IBS symptoms: Success” value [2, 15] was 125 (39.7%) n (%).

Source: patent US11564912B2, “Methods for treating irritable bowel syndrome (IBS)” (Salix Pharmaceuticals, Inc., priority 2008, dated 2023)
